Measurements from patent publication US20230085307A1, “PYRIDAZINONE COMPOUND AND HERBICIDE” (NISSAN CHEMICAL CORPORATION, priority 2019, published 2023).

Assays:
[1] = system: redroot pigweed; experiment: Test Example 5: herbicidal effect by foliage application, plastic box (Table 20, symbol N); format: in vivo, redroot pigweed (Amaranthus retroflexus); details: foliage application, 320 g/ha, evaluated three weeks after application
Procedure, shortened: (§1)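 Plants sown in sterilized diluvial soil and grown 14 days in a greenhouse at 25° C to 30° C, then sprayed on the foliage with the compound's emulsion diluted in water to a predetermined herbicide amount. Injury to weeds and crops scored three weeks after application on a visual rating scale.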

[2] = system: velvetleaf; experiment: Test Example 4: herbicidal effect by soil treatment (Table 19, symbol M); format: in vivo, velvetleaf (Abutilon theophrasti); details: amount of applied herbicide 320 g/ha
Procedure, shortened: (§2)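 Seeds were sown in sterilized diluvial soil and covered with about 1.5 cm of soil. An emulsion formulation diluted with water to a predetermined herbicide amount was sprayed evenly onto the soil surface. Plants grew in a greenhouse at 25° C. to 30° C., and the effect was scored three weeks after application using criteria from an earlier test.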

[3] = system: lambsquarters; experiment: Test Example 5: herbicidal effect by foliage application, plastic box (Table 20, symbol O); format: in vivo, lambsquarters (Chenopodium album); details: foliage application, 320 g/ha, evaluated three weeks after application
Procedure, shortened: as §1

[4] = system: barnyard grass; experiment: Test Example 5: herbicidal effect by foliage application, plastic box (Table 20, symbol H); format: in vivo, barnyard grass (Echinochloa crus-galli); details: foliage application, 320 g/ha, evaluated three weeks after application
Procedure, shortened: as §1

[5] = system: Italian ryegrass; experiment: Test Example 4: herbicidal effect by soil treatment (Table 19, symbol K); format: in vivo, Italian ryegrass (Lolium multiflorum); details: amount of applied herbicide 320 g/ha
Procedure, shortened: as §2

[6] = system: chickweed; experiment: Test Example 5: herbicidal effect by foliage application, plastic box (Table 20, symbol P); format: in vivo, common chickweed (Stellaria media); details: foliage application, 320 g/ha, evaluated three weeks after application
Procedure, shortened: as §1

[7] = system: Chinese sprangletop; experiment: Test Example 3: herbicidal effect by foliage application, Wagner pot (Table 18, symbol D); format: in vivo, chinese sprangletop (Leptochloa chinensis); details: amount of applied herbicide 320 g/ha
Procedure, shortened: (§3)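 Plants were sown in alluvial soil held under 0.1–0.5 cm standing water and grown 14 days in a greenhouse at 25–30 °C. An emulsifiable formulation, water-diluted to the set dose, was then sprayed onto the foliage, and effects were scored three weeks later using previously defined criteria.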

[8] = system: wild oat; experiment: Test Example 5: herbicidal effect by foliage application, plastic box (Table 20, symbol I); format: in vivo, wild oat (Avena fatua); details: foliage application, 320 g/ha, evaluated three weeks after application
Procedure, shortened: as §1

[9] = system: persian speedwell; experiment: Test Example 5: herbicidal effect by foliage application, plastic box (Table 20, symbol R); format: in vivo, Persian speedwell (Veronica persica); details: foliage application, 320 g/ha, evaluated three weeks after application
Procedure, shortened: as §1

[10] = system: southern crabgrass; experiment: Test Example 4: herbicidal effect by soil treatment (Table 19, symbol F); format: in vivo, southern crabgrass (Digitaria ciliaris); details: amount of applied herbicide 320 g/ha
Procedure, shortened: as §2

[11] = system: wild oat; experiment: Test Example 4: herbicidal effect by soil treatment (Table 19, symbol I); format: in vivo, wild oat (Avena fatua); details: amount of applied herbicide 320 g/ha
Procedure, shortened: as §2

[12] = system: barnyard grass; experiment: Test Example 3: herbicidal effect by foliage application, Wagner pot (Table 18, symbol H); format: in vivo, barnyard grass (Echinochloa crus-galli); details: amount of applied herbicide 320 g/ha
Procedure, shortened: as §3

[13] = system: Italian ryegrass; experiment: Test Example 5: herbicidal effect by foliage application, plastic box (Table 20, symbol K); format: in vivo, Italian ryegrass (Lolium multiflorum); details: foliage application, 320 g/ha, evaluated three weeks after application
Procedure, shortened: as §1

[14] = system: windgrass; experiment: Test Example 5: herbicidal effect by foliage application, plastic box (Table 20, symbol L); format: in vivo, windgrass (Apera spica-venti); details: foliage application, 320 g/ha, evaluated three weeks after application
Procedure, shortened: as §1

[15] = system: persian speedwell; experiment: Test Example 4: herbicidal effect by soil treatment (Table 19, symbol R); format: in vivo, Persian speedwell (Veronica persica); details: amount of applied herbicide 320 g/ha
Procedure, shortened: as §2

[16] = system: barnyard grass; experiment: Test Example 4: herbicidal effect by soil treatment (Table 19, symbol H); format: in vivo, barnyard grass (Echinochloa crus-galli); details: amount of applied herbicide 320 g/ha
Procedure, shortened: as §2

[17] = system: velvetleaf; experiment: Test Example 5: herbicidal effect by foliage application, plastic box (Table 20, symbol M); format: in vivo, velvetleaf (Abutilon theophrasti); details: foliage application, 320 g/ha, evaluated three weeks after application
Procedure, shortened: as §1

[18] = system: green foxtail; experiment: Test Example 4: herbicidal effect by soil treatment (Table 19, symbol G); format: in vivo, green foxtail (Setaria viridis); details: amount of applied herbicide 320 g/ha
Procedure, shortened: as §2

[19] = system: rice flat sedge; experiment: Test Example 3: herbicidal effect by foliage application, Wagner pot (Table 18, symbol E); format: in vivo, rice flat sedge (Cyperus iria); details: amount of applied herbicide 320 g/ha
Procedure, shortened: as §3

[20] = system: windgrass; experiment: Test Example 4: herbicidal effect by soil treatment (Table 19, symbol L); format: in vivo, windgrass (Apera spica-venti); details: amount of applied herbicide 320 g/ha
Procedure, shortened: as §2

[21] = system: blackgrass; experiment: Test Example 4: herbicidal effect by soil treatment (Table 19, symbol J); format: in vivo, blackgrass (Alopecurus myosuroides); details: amount of applied herbicide 320 g/ha
Procedure, shortened: as §2

[22] = system: green foxtail; experiment: Test Example 5: herbicidal effect by foliage application, plastic box (Table 20, symbol G); format: in vivo, green foxtail (Setaria viridis); details: foliage application, 320 g/ha, evaluated three weeks after application
Procedure, shortened: as §1

[23] = system: chickweed; experiment: Test Example 4: herbicidal effect by soil treatment (Table 19, symbol P); format: in vivo, common chickweed (Stellaria media); details: amount of applied herbicide 320 g/ha
Procedure, shortened: as §2

[24] = system: blackgrass; experiment: Test Example 5: herbicidal effect by foliage application, plastic box (Table 20, symbol J); format: in vivo, blackgrass (Alopecurus myosuroides); details: foliage application, 320 g/ha, evaluated three weeks after application
Procedure, shortened: as §1

[25] = system: redroot pigweed; experiment: Test Example 4: herbicidal effect by soil treatment (Table 19, symbol N); format: in vivo, redroot pigweed (Amaranthus retroflexus); details: amount of applied herbicide 320 g/ha
Procedure, shortened: as §2

[26] = system: southern crabgrass; experiment: Test Example 5: herbicidal effect by foliage application, plastic box (Table 20, symbol F); format: in vivo, southern crabgrass (Digitaria ciliaris); details: foliage application, 320 g/ha, evaluated three weeks after application
Procedure, shortened: as §1

[27] = system: lambsquarters; experiment: Test Example 4: herbicidal effect by soil treatment (Table 19, symbol O); format: in vivo, lambsquarters (Chenopodium album); details: amount of applied herbicide 320 g/ha
Procedure, shortened: as §2

CCCC(=O)Oc1c(C)nn(C)c(=O)c1-c1c(-c2ccc(C)cc2)sc2ccc(C)cc12 [2-137]
herbicidal effect on N: redroot pigweed [1]: 4 (Herbicidal rate of 70% or more and less than 90%) | M: velvetleaf, herbicidal effect rating [2]: 0 (Herbicidal rate of 5% or less (almost no effect)) | herbicidal effect on O: lambsquarters [3]: 2 (Herbicidal rate of 20% or more and less than 40%) | herbicidal effect on H: barnyard grass [4]: 0 (Herbicidal rate of 5% or less (almost no effect)) | K: Italian ryegrass, herbicidal effect rating [5]: 2 (Herbicidal rate of 20% or more and less than 40%) | herbicidal effect on P: chickweed [6]: 5 (Herbicidal rate of 90% or more (almost completely withered)) | herbicidal effect on D: Chinese sprangletop [7]: 1 (Herbicidal rate of 5% or more and less than 20%) | herbicidal effect on I: wild oat [8]: 0 (Herbicidal rate of 5% or less (almost no effect)) | herbicidal effect on R: persian speedwell [9]: 5 (Herbicidal rate of 90% or more (almost completely withered)) | F: southern crabgrass, herbicidal effect rating [10]: 0 (Herbicidal rate of 5% or less (almost no effect)) | I: wild oat, herbicidal effect rating [11]: 0 (Herbicidal rate of 5% or less (almost no effect)) | herbicidal effect on H: barnyard grass [12]: 1 (Herbicidal rate of 5% or more and less than 20%) | herbicidal effect on K: Italian ryegrass [13]: 4 (Herbicidal rate of 70% or more and less than 90%) | herbicidal effect on L: windgrass [14]: 0 (Herbicidal rate of 5% or less (almost no effect)) | R: persian speedwell, herbicidal effect rating [15]: 1 (Herbicidal rate of 5% or more and less than 20%) | H: barnyard grass, herbicidal effect rating [16]: 0 (Herbicidal rate of 5% or less (almost no effect)) | herbicidal effect on M: velvetleaf [17]: 4 (Herbicidal rate of 70% or more and less than 90%) | G: green foxtail, herbicidal effect rating [18]: 0 (Herbicidal rate of 5% or less (almost no effect)) | herbicidal effect on E: rice flat sedge [19]: 5 (Herbicidal rate of 90% or more (almost completely withered)) | L: windgrass, herbicidal effect rating [20]: 0 (Herbicidal rate of 5% or less (almost no effect)) | J: blackgrass, herbicidal effect rating [21]: 0 (Herbicidal rate of 5% or less (almost no effect)) | herbicidal effect on G: green foxtail [22]: 3 (Herbicidal rate of 40% or more and less than 70%) | P: chickweed, herbicidal effect rating [23]: 4 (Herbicidal rate of 70% or more and less than 90%) | herbicidal effect on J: blackgrass [24]: 0 (Herbicidal rate of 5% or less (almost no effect)) | N: redroot pigweed, herbicidal effect rating [25]: 0 (Herbicidal rate of 5% or less (almost no effect)) | herbicidal effect on F: southern crabgrass [26]: 0 (Herbicidal rate of 5% or less (almost no effect)) | O: lambsquarters, herbicidal effect rating [27]: 0 (Herbicidal rate of 5% or less (almost no effect))
